Results from ChEMBL document CHEMBL1140009, “Synthesis, determination of stereochemistry, and evaluation of new bisindole alkaloids from the myxomycete Arcyria ferruginea: an approach for Wnt signal inhibitor” (Bioorg Med Chem Lett, 2007).

System: Cancer cell lines
Assay: Inhibition of Wnt signal in cancer cells by luciferase reporter gene assay
Format: cell-based
Conditions: Homo sapiens

Row | Compound | Activity
1 | O=C1NC(=O)c2c1c1c3ccc(O)cc3[nH]c1c1[nH]c3cc(O)ccc3c21 | Dose-dependent effect
2 | O=C1NC(=O)[C@@H](c2c[nH]c3cc(O)ccc23)[C@H]1c1c[nH]c2cc(O)ccc12 | Dose-dependent effect
